Source: EP1304119A2, “Method for preventing and treating hearing loss using a neurturin protein product” (Amgen Inc., priority 1997, dated 1999)

How the values were obtained:
cochlear hair cells [1] = assay: Organ of Corti (cochlea) explant culture, hair cell survival after cisplatin exposure (FITC-phalloidin count); assay type: cell-based, rat; conditions: cisplatin treatment alone
Description: Triton X-100 (t-Octylphenoxypoly-ethoxyethanol. Cat. #X-100, Sigma. St. Louis, MO) • 4. Phalloidin (FITC Labeled. Cat. #P-5282, Sigma. St. Louis, MO) • 5. Vectashield (Mounting Medium, Cat. #H-1000, Vector, Burlingame, CA)
Organ of Corti explants were obtained from P3-P4 Wistar rats. Rats were decapitated, the lower jaw was cut out and skin removed. The temporal bone was collected in dissection solution, the otic capsule exposed and the bony-cartilaginous cochlear capsule was carefully separated from the temporal bone. Freed cochlea were transferred to another Petri dish with dissection solution for further dissection. […] The organ of Corti was then transferred to a 35-mm diameter Petri dish containing cold PBS supplemented with glucose and ready to be cultured. […]
For each experimental point, 2 to 4 cochlea were used. In each cochlea, the number of hair cells was counted in 2-3 section, 175 mm in length each. Only the sections in the middle turn of the cochlea were analyzed. […]

cochlear hair cells [2] = assay: In vivo hair cell loss after cisplatin, neurturin infused into the inner ear by mini-pump; set-up: species or system guinea pigs; conditions: cisplatin 7.5 mg/kg twice
Description: The following example describes the inner ear administration of neurturin protein product to protect cochlear hair cells against ototoxicity in an animal model. The neurturin protein product is introduced into the inner ear via a cannula pushed into the scala tympani through a hole drilled in the basal turn of the cochlea. The cannula is connected to an Alzet mini-pump loaded with neurturin protein product (50 ng/ml) at a releasing rate of 0.5 µl/hour for 14 days. […] The experiment is terminated after 27 days. The hair cells are stained with FITC-phalloidin, and their number is determined in the middle turn of the cochlea (in at least 20% of the middle turn part). The results are expressed as the percent of hair cells lost for each individual guinea pig for the neurturin protein product treated ear (right ear) and the untreated ear (left ear).
The loading of a pump with methylene dye is done by holding the pump in a vertical position. A dye-loaded syringe is inserted completely into the pump, and the dye is injected until the pump overflowed. Injection of any air bubbles into the pump is avoided. A short piece of sterile V/4 tubing is placed onto the Flow Moderator. Neurturin protein product is loaded at a concentration of 50 ng/ml in PBS + 0.1% BSA, in a total volume of 230 µl, to within about 10 mm of the cannula tip, using a syringe connected with V/4 tubing. […]

cochlear hair cells [3] = assay: Organ of Corti (cochlea) explant culture, hair cell survival after neomycin exposure (FITC-phalloidin count); assay type: cell-based, rat; conditions: for Hair cell survival (% of untreated): Neomycin alone (0.6 mM), added 24 hours after plating, 3 days exposure, mean ± SD, 4320 min, 600 µM
Text: • 1. Neomycin solution (Cat. #N1142, Sigma. St. […] Cat. #X-100, Sigma. St. Louis, MO) • 4. Phalloidin (FITC Labeled. Cat. #P-5282, Sigma. St. Louis, MO) • 5. Vectashield (Mounting Medium, Cat. #H-1000, Vector, Burlingame, CA)
Organ of Corti explants were obtained from P3-P4 Wistar rats. Rats were decapitated, the lower jaw was cut out and skin removed. The temporal bone was collected in dissection solution, the otic capsule exposed and the bony-cartilaginous cochlear capsule was carefully separated from the temporal bone. Freed cochlea were transferred to another Petri dish with dissection solution for further dissection. Intact organs of Corti were obtained by using a fine forceps to hold central VIII nerve tissue and remove it out, then the stria vascular membrane was carefully stripped off, starting from the apex or base. The organ of Corti was then transferred to a 35-mm diameter Petri dish containing cold PBS supplemented with glucose and ready to be cultured.
Cochlea explants were cultured in uncoated 96 well microplates. A single organ of Corti was placed in a well and was kept floating in the medium.
Explants were kept in normal medium for 24 hours (90 µl/well). Neurturin protein solution (10 µl) was added to the 'treated' cultures, and 10 µl of medium were added to controls. After 24 hours of incubation, the media were changed and the explants were exposed to ototoxin-containing medium (90 µl), with neurturin protein solution (10µl) or without (control). The cultures were incubated for an additional 3 days. […]
To identify and count hair cells in the organ of Corti, a direct immunostaining method was used to label the actin present naturally in the stereocilia bundles of the hair cells. […] The explants were . observed under a Nikon Diaphot-300 inverted fluorescence microscope, using FITC filters and fluorescence optics.
For each experimental point, 2 to 4 cochlea were used. In each cochlea, the number of hair cells was counted in 2-3 section, […] in length each. Only the sections in the middle turn of the cochlea were analyzed. […]

| Compound | morphology of the organs of Corti (four-row structure) (cochlear hair cells [1]) | loss of hair cells in the left ear (untreated ear) (cochlear hair cells [2]) | Hair cell survival (% of untreated) (cochlear hair cells [3]) [n=23%] | Hair cell survival (% of untreated) (cochlear hair cells [3]; listed as neomycin) [%] | morphology of the organs of Corti (four-row structure) (cochlear hair cells [3]; neomycin treatment alone, spared hair cells) |
| --- | --- | --- | --- | --- | --- |
| N.N.[Cl][Pt][Cl] [Cisplatin] | caused a marked disruption of the four-row-structure | approximately 40% |  |  |  |
| Neomycin |  |  | 5.9 ± 4.7 | 6 | still organized in the typical four row structure |
